Data reported in paper PMC2568824, “Dibutyltin Disrupts Glucocorticoid Receptor Function and Impairs Glucocorticoid-Induced Suppression of Cytokine Production” (PLoS ONE, 2008).

Tests used:
[1] = biological target: T1, glucocorticoid receptor (GR-α) (Homo sapiens, UniProt P04150); set-up: gene NR3C1
T1 sequence (P04150 1-777): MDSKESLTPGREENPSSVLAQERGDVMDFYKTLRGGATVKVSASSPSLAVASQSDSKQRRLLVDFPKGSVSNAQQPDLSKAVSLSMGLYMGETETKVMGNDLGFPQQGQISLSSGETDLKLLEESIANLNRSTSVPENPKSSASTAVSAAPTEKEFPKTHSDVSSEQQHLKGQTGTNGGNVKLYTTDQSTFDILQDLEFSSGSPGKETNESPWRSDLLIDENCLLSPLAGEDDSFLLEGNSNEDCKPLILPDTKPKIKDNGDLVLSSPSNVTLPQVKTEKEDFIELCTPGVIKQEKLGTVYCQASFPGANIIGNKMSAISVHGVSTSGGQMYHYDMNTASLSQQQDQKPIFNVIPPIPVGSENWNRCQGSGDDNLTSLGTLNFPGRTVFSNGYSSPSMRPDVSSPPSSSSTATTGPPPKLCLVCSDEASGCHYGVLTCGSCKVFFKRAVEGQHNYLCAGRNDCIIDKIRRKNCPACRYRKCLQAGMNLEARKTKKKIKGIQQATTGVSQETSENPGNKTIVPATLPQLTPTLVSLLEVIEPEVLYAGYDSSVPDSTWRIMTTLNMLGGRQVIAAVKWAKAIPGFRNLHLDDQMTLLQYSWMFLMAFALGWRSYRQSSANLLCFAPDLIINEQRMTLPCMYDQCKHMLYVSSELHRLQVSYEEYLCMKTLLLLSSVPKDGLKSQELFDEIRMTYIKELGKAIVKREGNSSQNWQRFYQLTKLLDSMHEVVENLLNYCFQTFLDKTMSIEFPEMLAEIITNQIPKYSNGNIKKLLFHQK

[2] = biological target: T1, glucocorticoid receptor (GR-α); assay: inhibition of [3H]-dexamethasone binding in intact GR-transfected HEK-293 cells, overnight DBT preincubation ([…] for […] inhibition without preincubation); also transactivation reporter; assay type: cell-based; set-up: gene NR3C1; human GR-α, transiently expressed in HEK-293 cells

| Compound | radioligand binding (10 nM [3H]-dexamethasone) and displacement by unlabeled dex [1] | IC50 [2] |
| --- | --- | --- |
| C[C@@H]1C[C@H]2[C@@H]3CCC4=CC(=O)C=C[C@]4(C)[C@@]3(F)[C@@H](O)C[C@]2(C)[C@@]1(O)C(=O)CO [Dex, dexamethasone] | Addition of unlabeled dexamethasone revealed a typical displacement pattern of tritiated dexamethasone in the presence or absence of DBT |  |
| dibutyltin [DBT] |  | ~50 nM |
